Experimental findings from patent US12275731B2, “Azaindole inhibitors of wild-type and mutant forms of LRRK2” (DANA-FARBER CANCER INSTITUTE, INC., priority 2018, dated 2025) are described below.

Holding throughout (assay): KinomeScan profiling
What all share (type): binding

The target in one assay is T1, BRSK1 (Homo sapiens, UniProt Q8TDC3).
T1 sequence (Q8TDC3 1-778): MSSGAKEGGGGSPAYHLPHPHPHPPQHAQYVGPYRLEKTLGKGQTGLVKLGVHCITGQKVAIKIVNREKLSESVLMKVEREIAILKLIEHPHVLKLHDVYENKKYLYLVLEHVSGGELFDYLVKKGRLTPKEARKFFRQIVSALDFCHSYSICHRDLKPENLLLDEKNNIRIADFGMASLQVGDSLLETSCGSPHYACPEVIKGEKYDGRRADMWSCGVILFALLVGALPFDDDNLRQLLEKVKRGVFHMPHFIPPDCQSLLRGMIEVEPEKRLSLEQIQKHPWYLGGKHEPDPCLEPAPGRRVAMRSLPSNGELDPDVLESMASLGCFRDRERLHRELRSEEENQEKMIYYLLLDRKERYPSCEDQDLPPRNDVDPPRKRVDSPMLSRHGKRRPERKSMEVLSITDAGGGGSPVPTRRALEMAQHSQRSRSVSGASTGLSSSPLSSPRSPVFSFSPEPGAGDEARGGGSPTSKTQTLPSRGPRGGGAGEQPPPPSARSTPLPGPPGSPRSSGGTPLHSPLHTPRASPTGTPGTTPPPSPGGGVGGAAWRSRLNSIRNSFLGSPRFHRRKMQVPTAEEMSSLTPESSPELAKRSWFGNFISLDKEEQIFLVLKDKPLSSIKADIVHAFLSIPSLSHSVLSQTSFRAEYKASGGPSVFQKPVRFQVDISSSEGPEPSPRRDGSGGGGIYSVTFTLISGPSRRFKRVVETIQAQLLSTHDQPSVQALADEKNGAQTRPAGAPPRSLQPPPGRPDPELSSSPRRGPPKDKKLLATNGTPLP
The conditions noted are these: BRSK1, 1 μM; read-out: % control. A digest of the protocol:
(§1)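 1 μM cpd in DMSO; 468-kinase panel; readout RLU. % ctrl = (cpd − pos ctrl)/(neg ctrl − pos ctrl) ×100. Pos ctrl = 0%, DMSO = 100%. Hit cut-off <35%.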

The target in the next assay is PFTAIRE2 (Homo sapiens, UniProt Q96Q40). The note with it: PFTAIRE2, 1 μM; read-out: % control. In outline:
as §1

Assay [1] concerns the target T2, RSK3(Kin.Dom.1-N-terminal) (Homo sapiens, UniProt Q15349).
T2 construct: RSK3(Kin.Dom.1-N-terminal)
The conditions noted are these: read-out: % control. A digest of the protocol:
as §1

Another assay has as its target T3, MKK7 (Homo sapiens, UniProt O14733).
T3 sequence (O14733 1-419): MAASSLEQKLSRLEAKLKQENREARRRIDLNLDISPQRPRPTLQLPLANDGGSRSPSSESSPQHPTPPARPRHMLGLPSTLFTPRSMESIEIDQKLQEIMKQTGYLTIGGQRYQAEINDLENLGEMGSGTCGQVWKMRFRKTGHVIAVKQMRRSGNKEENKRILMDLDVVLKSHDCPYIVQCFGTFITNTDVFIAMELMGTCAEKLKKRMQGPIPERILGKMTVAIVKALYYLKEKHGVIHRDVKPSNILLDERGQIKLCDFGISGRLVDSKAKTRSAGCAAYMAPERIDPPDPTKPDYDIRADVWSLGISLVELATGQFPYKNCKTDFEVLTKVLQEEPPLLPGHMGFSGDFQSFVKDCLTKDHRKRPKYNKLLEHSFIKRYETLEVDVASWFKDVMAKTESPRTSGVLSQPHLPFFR
The conditions noted are these: MKK7, 1 μM; read-out: % control. In outline:
as §1

The target of the next assay is T4, PRKD1 (Homo sapiens, UniProt Q15139).
T4 sequence (Q15139 1-912): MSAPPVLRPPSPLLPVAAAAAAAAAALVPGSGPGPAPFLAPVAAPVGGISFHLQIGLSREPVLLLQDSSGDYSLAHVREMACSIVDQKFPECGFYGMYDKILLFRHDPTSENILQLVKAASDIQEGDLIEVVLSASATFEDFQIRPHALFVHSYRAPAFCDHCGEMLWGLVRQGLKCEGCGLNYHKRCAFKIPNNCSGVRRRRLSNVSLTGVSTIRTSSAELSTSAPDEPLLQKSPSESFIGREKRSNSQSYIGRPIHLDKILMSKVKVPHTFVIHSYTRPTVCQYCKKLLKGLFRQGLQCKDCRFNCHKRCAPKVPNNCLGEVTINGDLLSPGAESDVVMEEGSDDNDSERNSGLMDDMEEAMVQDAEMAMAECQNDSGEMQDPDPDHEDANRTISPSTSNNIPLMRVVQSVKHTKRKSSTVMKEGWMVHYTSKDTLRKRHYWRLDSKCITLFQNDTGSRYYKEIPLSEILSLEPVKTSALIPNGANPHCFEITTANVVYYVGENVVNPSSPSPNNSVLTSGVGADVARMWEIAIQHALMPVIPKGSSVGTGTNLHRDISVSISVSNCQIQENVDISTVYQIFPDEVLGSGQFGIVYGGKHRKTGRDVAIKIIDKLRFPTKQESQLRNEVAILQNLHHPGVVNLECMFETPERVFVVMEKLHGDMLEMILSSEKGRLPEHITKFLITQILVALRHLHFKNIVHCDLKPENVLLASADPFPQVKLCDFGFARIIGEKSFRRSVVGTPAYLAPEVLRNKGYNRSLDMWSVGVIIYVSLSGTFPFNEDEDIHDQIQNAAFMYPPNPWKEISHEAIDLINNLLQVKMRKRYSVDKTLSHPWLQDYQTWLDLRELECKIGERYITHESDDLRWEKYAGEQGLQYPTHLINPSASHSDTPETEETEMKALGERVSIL
The conditions noted are these: PRKD1, 1 μM; read-out: % control. A digest of the protocol:
as §1

A further assay concerns the target CSNK1D (Homo sapiens, UniProt P48730). The note with it: read-out: % control. A digest of the protocol: as §1
The target of the next assay is FGFR2 (Homo sapiens, UniProt P21802). The note with it: FGFR2, 1 μM; read-out: % control. A digest of the protocol: as §1
Chain of FGFR2 (P21802 22-821): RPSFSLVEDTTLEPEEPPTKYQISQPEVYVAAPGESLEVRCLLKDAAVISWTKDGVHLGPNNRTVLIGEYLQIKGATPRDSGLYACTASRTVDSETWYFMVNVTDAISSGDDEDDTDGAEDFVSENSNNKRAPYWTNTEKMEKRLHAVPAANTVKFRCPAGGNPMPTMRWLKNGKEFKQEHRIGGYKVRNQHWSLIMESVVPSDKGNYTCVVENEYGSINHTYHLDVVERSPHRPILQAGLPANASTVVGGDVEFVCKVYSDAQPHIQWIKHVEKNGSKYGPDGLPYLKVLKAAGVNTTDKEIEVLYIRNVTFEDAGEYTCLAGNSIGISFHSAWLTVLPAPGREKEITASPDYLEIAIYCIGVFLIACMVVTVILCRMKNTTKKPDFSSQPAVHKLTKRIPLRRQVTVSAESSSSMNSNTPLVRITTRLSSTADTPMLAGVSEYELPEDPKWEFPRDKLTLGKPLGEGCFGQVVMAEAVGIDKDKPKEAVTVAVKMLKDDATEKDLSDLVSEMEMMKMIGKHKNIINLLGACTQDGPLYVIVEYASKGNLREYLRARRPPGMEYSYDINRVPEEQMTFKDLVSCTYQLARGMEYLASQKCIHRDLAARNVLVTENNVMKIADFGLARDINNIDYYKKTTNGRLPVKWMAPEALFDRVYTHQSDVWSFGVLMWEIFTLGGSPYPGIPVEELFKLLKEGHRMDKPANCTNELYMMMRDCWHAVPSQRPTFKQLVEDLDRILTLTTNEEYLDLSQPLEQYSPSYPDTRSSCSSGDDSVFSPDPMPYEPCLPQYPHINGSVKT
Another assay has as its target CAMK1D (Homo sapiens, UniProt Q8IU85). The conditions noted are these: read-out: % control. In outline: as §1

T2 sequence (Q15349 59-318 limits assumed): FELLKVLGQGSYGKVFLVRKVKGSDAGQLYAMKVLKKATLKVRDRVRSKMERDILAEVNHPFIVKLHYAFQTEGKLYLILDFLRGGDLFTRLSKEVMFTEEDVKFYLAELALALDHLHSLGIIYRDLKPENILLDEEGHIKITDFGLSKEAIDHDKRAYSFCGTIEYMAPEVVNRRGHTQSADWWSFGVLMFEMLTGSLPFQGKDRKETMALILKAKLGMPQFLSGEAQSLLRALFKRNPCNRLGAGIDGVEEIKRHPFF
Chain of CSNK1D (P48730 whole entry): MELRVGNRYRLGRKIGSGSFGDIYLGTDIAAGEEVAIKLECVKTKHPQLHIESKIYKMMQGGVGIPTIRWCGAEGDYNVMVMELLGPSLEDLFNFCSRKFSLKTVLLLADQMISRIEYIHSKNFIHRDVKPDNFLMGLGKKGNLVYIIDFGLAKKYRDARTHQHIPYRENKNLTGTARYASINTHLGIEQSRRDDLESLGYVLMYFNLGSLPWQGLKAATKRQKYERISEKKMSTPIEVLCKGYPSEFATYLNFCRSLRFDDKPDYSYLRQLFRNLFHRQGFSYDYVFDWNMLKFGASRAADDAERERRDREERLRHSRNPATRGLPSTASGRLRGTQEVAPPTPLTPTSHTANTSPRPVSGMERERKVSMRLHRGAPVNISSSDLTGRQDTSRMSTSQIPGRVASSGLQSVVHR
Chain of CAMK1D (Q8IU85 whole entry): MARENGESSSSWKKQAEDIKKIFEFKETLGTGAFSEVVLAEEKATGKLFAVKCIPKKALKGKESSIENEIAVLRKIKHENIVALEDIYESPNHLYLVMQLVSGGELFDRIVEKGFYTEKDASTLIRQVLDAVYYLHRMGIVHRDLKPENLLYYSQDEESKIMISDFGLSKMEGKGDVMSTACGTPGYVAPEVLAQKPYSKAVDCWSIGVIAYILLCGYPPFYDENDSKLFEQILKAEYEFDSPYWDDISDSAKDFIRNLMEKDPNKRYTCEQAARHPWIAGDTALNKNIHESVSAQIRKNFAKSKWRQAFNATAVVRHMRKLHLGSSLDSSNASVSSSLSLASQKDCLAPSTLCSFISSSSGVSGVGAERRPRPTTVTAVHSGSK
Chain of PFTAIRE2 (Q96Q40 whole entry): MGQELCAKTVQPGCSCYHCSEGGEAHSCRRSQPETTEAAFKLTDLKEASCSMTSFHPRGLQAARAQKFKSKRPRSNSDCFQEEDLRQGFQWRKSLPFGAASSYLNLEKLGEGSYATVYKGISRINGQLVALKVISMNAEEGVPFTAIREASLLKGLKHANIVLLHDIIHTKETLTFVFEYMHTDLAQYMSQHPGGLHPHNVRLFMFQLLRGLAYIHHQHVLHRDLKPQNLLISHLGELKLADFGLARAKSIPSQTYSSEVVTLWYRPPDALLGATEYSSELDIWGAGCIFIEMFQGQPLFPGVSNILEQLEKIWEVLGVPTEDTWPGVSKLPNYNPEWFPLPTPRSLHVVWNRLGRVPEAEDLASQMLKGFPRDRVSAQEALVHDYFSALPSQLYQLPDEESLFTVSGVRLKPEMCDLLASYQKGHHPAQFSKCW

For the molecule `CNc1c(-c2ccc(C(=O)N3CCC(N4CCOCC4)CC3)cc2)cnc2[nH]cc(Cl)c12` [Compound 96, (4-(3-chloro-4-(methylamino)-1H-pyrrolo[2,3-b]pyridin-5-yl)phenyl)(4-morpholinopiperidin-1-yl)methanone], the remaining binding at 1 µM on BRSK1 is 100%; at PFTAIRE2, 100%; in assay [1], 78%; on MKK7 it was 79%; on PRKD1, 19%; on CSNK1D, 90%. Moreover, the figures for the remaining binding at 1 µM on FGFR2 and on CAMK1D were 94% and 69%, respectively.

On to `O=C(c1ccc(-c2cnc3[nH]cc(Cl)c3c2NC2CCCC2)cc1)N1CCC(N2CCOCC2)CC1` [Compound 101, (4-(3-chloro-4-(cyclopentylamino)-1H-pyrrolo[2,3-b]pyridin-5-yl)phenyl)(4-morpholinopiperidin-1-yl)methanone], for which the remaining binding at 1 µM stood at 100% at BRSK1; 91% at PFTAIRE2; 66% in assay [1]; 100% on MKK7; 48% on PRKD1; 92% on CSNK1D. The values for the remaining binding at 1 µM at FGFR2 and on CAMK1D were 54% and 100%, respectively.

As to `CNc1c(-c2cnn([C@H]3CCN(C(C)=O)C[C@@H]3F)c2)cnc2[nH]cc(Cl)c12` [Compound 77, 1-((3S,4S)-4-(4-(3-chloro-4-(methylamino)-1H-pyrrolo[2,3-b]pyridin-5-yl)-1H-pyrazol-1-yl)-3-fluoropiperidin-1-yl)ethan-1-one], the remaining binding at 1 µM on BRSK1 turned out to be 100%; on PFTAIRE2, 100%; in assay [1] it was 80%; on MKK7 it was 67%; on PRKD1 it was 58%; on CSNK1D, 84%. The remaining binding at 1 µM was 72% on FGFR2 and 85% on CAMK1D.
